From patent US9688666B2, “Lamivudine salts” (Tobira Therapeutics, Inc., priority 2013, dated 2017)

Key:
Type in all cases: physicochemical
[1] = Storage stability at ambient temperature and humidity, XRPD before and after; conditions: stored in a cupboard at ambient temperature and humidity for 16 weeks
Protocol: A sample of lamivudine hydrochloride polymorph Form II was analyzed by XRPD, and then stored in a cupboard at ambient temperature and humidity for 16 weeks, after which the sample was re-analyzed by XRPD. FIG. 32 compares the XRPD pattern obtained before storage (top pattern) and after 16 weeks of storage (middle pattern) with the XRPD pattern of lamivudine hydrochloride polymorph Form I obtained by the method of Example 1 (bottom pattern).

[2] = Competitive slurry of Form I/Form II mixture, product examined by XRPD; conditions: 20 mg Form I + 20 mg Form II suspended in 400 μL acetone or 400 μL isopropanol, shaken at ambient temperature for 72 hours; same result in both cases
Protocol: A first mixture of 20 mg lamivudine hydrochloride polymorph Form I and 20 mg lamivudine hydrochloride polymorph Form II was suspended in 400 μL of acetone, and a second mixture of 20 mg lamivudine hydrochloride polymorph Form I and 20 mg lamivudine hydrochloride polymorph Form II was suspended in 400 μL isopropanol. Both mixtures were shaken at ambient temperature for 72 hours, after which the resulting product was examined by XRPD. In both cases, the resulting product an XRPD diffraction pattern substantially similar to that of FIG. 6.

[3] = Gravimetric vapor sorption (GVS), hygroscopicity; conditions: 25 degrees C, relative humidity 0% to 90% in 10% RH increments
Excerpt: A crystalline form can be characterized by gravimetric vapor sorption (GVS). A GVS plot can be a graph of weight gain or loss against relative humidity. The total weight gain or loss is often reported as a weight percent (wt %), the value of which allows for and includes an appropriate margin of error that can be represented by the symbol “±.” For example, a weight change of about 2.0±0.5% can refer to a range from about 2+0.5%, that is, 2.5%, to about […], that is, about 1.5%. Depending on the sample preparation technique, the calibration technique applied to the instrument, human operation variation, the nature of the particular instrument being used, and other factors known to the art, the appropriate margin of error for a weight gain or loss can be about ±2%, about ±1%, about ±0.75%, about ±0.5%, about ±0.25%, or less. Among other things, GVS can be useful for determining whether a crystalline form changes upon exposure to humidity.
Gravimetric vapor sorption plots were obtained on an ‘Iga Sorp’ vapor sorption balance manufactured by Hidden Analytical Instruments, which was calibrated according to manufacturer recommendations. Samples were dried by maintaining a 0% humidity until no additional weight change was measured. […] After equilibration, the weight change was measured, and the RH was then increased by 10% following the above-described equilibration procedure. […]

Row | SMILES | solid form stability on storage (XRPD) [1] | relative thermodynamic stability of polymorphs (form of product by XRPD) [2] | GVS reversible weight gain [3] [%]
1 | Cl.Nc1ccn([C@@H]2CS[C@H](CO)O2)c(=O)n1 [listing 1 of 2 here] | spontaneously converting to lamivudine hydrochloride polymorph Form I after 16 weeks of storage | less thermodynamically stable than, and transforming into, lamivudine hydrochloride polymorph Form I | 
2 | Cl.Nc1ccn([C@@H]2CS[C@H](CO)O2)c(=O)n1 [listing 2 of 2 here] |  |  | ≤ 1
